pEC50: −log10 of the molar value.
What follows are compounds tested against mGluR4 (Homo sapiens, UniProt Q14833) (assay: mGlu4 PAM potentiation assay, CHO cells transfected with human mGluR4, Ca2+-sensitive dye fluorescence).
Type: cell-based
Procedure: The disclosed compounds and compositions can be evaluated for their ability to act as a potentiator of metabotropic glutamate receptor activity, in particular mGluR4 activity, by any suitable known methodology known in the art. For example, Chinese Hamster Ovary (CHO) cells transfected with human mGluR4 or HEK cells co-transfected with rat mGluR4 and the G-protein regulated Inwardly Rectifying Potassium channel (GIRK) were plated in clear bottom, assay plates for assay in a Hamamatsu FDSS Fluorometric Plate Reader. The cells were loaded with either a Ca2+-sensitive fluorescent dye or the thallium responsive dye and the plates were washed and placed into a suitable kinetic plate reader. For human mGluR4 assays, a fluorescence baseline was established for 3-5 seconds, the disclosed compounds were then added to the cells, and the response in cells was measured. Approximately two and a half minutes later, a concentration of mGluR4 orthosteric agonist (e.g. glutamate, L-AP4, or L-SOP) eliciting approximately 20% (EC20) of the maximal agonist response was added to the cells, and the response was measured. Two minutes later, a concentration of mGluR4 agonist (e.g. glutamate, L-AP4, or L-SOP) eliciting 80% (EC80) of the maximal agonist response was added to the cells, and the response was measured. For rat mGluR4/GIRK experiments, a baseline was established for approximately five seconds, disclosed compounds were added, and either an EC20 or EC80 concentration of agonist was added approximately two and one half minutes later. Potentiation or antagonism of the agonist response of mGluR4 by the disclosed compounds was observed as an increase or decrease in response to the EC20 concentration of agonist in the presence of compound compared to the response to agonist in the absence of compound. Similarly, potentiation or antagonism of the agonist response of mGluR4 by the disclosed Compounds was observed as an increase or decrease in response to the EC80 concentration of agonist in the presence of compound compared to the response to agonist in the absence of compound.
The above described assay operated in two modes. In the first mode, a range of concentrations of the disclosed compounds are added to cells, followed by a single fixed concentration of agonist. If the compound acts as a potentiatior, an EC50 value for potentiation and a maximum extent of potentiation by the compound at this concentration of agonist is determined by non-linear curve fitting. If the compound acts as an antagonist, an IC50 value is determined by non-linear curve fitting. In the second mode, several fixed concentrations of the disclosed compounds are added to various wells on a plate, followed by a range in concentrations of agonist for each concentration of disclosed compound. The EC50 values for the agonist at each concentration of compound are determined by non-linear curve fitting. A decrease in the EC50 value of the agonist with increasing concentrations of the sample compound (a leftward shift of the agonist concentration-response curve) is an indication of the degree of mGluR4 potentiation at a given concentration of the sample compound. A decrease in the maximal response of the agonist with increasing concentrations of the sample compounds, with or without a rightward shift in agonist potency, is an indication of the degree of antagonism at mGluR4. The second mode also indicates whether the sample compounds also affect the maximum response to mGluR4 to agonists.

Chain of mGluR4 (Q14833 33-912 limits assumed): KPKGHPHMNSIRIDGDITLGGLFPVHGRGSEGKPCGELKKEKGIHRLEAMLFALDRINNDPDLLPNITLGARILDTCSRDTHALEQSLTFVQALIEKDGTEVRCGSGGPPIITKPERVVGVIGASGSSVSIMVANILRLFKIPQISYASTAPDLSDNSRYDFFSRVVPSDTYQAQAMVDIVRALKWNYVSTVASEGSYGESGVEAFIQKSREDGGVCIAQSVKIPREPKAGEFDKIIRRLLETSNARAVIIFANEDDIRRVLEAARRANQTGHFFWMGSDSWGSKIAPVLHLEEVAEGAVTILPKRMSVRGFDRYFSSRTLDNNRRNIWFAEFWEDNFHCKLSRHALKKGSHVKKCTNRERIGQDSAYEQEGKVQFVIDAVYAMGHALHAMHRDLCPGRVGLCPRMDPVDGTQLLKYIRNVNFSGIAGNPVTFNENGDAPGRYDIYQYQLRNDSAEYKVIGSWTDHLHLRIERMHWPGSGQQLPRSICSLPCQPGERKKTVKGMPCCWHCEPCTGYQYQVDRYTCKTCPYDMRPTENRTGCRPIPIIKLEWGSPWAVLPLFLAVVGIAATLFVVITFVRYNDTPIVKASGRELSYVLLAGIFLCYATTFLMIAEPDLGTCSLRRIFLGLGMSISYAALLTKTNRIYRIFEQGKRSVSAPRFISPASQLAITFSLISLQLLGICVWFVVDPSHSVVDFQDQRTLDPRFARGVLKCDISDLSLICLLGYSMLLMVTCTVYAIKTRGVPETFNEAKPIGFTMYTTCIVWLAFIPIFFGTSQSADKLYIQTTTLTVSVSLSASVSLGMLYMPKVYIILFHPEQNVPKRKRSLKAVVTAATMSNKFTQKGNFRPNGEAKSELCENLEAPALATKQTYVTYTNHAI

Row | SMILES | pEC50
1 | O=C(Nc1cc(F)c2c(OCC3CCOC3)nccc2c1)c1ccccn1 (stereo not drawn) [Compound 78] | 7.41
2 | Nc1cccnc1C(=O)Nc1cc(F)c2c(OCC3CCOC3)nccc2c1 (stereo not drawn) [Compound 79] | 7.32
3 | O=C(Nc1cc(F)c2c(OCC3CCOC3)nccc2c1)c1ncccc1F (stereo not drawn) [Compound 80] | 6.51
4 | O=C(Nc1cc(F)c2c(OCC3CCOC3)nccc2c1)c1ccc(F)cn1 (stereo not drawn) [Compound 81] | 7.09
5 | O=C(Nc1cc(F)c2c(OCC3CCOC3)nccc2c1)c1cccc(F)n1 (stereo not drawn) [Compound 82] | 6.89
6 | O=C(Nc1cc(F)c2c(OCC3CCOC3)nccc2c1)c1ncc(F)cc1F (stereo not drawn) [Compound 83] | 6.81
7 | O=C(Nc1cc(F)c2c(OCC3CCOC3)nccc2c1)c1nc(F)ccc1F (stereo not drawn) [Compound 84] | 6.76
8 | O=C(Nc1ccc2c(OCC3CCOC3)nccc2c1)c1ccc(Cl)cn1 (stereo not drawn) [Compound 85] | 6.21
9 | O=C(Nc1ccc2c(OCC3CCOC3)nccc2c1)c1cccc(Cl)n1 (stereo not drawn) [Compound 86] | 6.21
10 | O=C(Nc1ccc2c(OCC3CCOC3)nccc2c1)c1cccc(F)n1 (stereo not drawn) [Compound 87] | 6.74
11 | O=C(Nc1ccc2c(OCC3CCOC3)nccc2c1)c1ncc(F)cc1Cl (stereo not drawn) [Compound 88] | 6.04
12 | O=C(Nc1ccc2c(OCC3CCOC3)nccc2c1)c1nc(Cl)ccc1F (stereo not drawn) [Compound 89] | 6.09
13 | O=C(Nc1cc(F)c2c(OCC3COCCO3)nccc2c1)c1ccccn1 (stereo not drawn) [Compound 90] | 6.94
14 | Nc1cccnc1C(=O)Nc1cc(F)c2c(OCC3COCCO3)nccc2c1 (stereo not drawn) [Compound 91] | 7.03
15 | O=C(Nc1cc(F)c2c(OCC3COCCO3)nccc2c1)c1ncccc1F (stereo not drawn) [Compound 92] | 6.82
16 | O=C(Nc1cc(F)c2c(OCC3COCCO3)nccc2c1)c1ccc(F)cn1 (stereo not drawn) [Compound 93] | 6.52
17 | O=C(Nc1cc(F)c2c(OCC3CCOCC3)nccc2c1)c1ccccn1 [Compound 94] | 7.42
18 | Nc1cccnc1C(=O)Nc1cc(F)c2c(OCC3CCOCC3)nccc2c1 [Compound 95] | 6.97
19 | O=C(Nc1cc(F)c2c(OCC3CCOCC3)nccc2c1)c1ncccc1F [Compound 96] | 6.99
20 | O=C(Nc1cc(F)c2c(OCC3CCOCC3)nccc2c1)c1ccc(F)cn1 [Compound 97] | 7.28
21 | O=C(Nc1cc(F)c2c(OCC3CCOCC3)nccc2c1)c1ncccc1C(F)(F)F [Compound 98] | 6.01
22 | Nc1nccnc1C(=O)Nc1ccc2c(OCC3CCOC3)nccc2c1 (stereo not drawn) [Compound 99] | 7.08
23 | CC1(C)CC(Oc2nccc3cc(NC(=O)c4ccccn4)cc(F)c23)CCO1 (stereo not drawn) [Compound 100] | 7.15

Row | SMILES | pEC50
24 | CC1(C)CC(Oc2nccc3cc(NC(=O)c4ncccc4F)cc(F)c23)CCO1 (stereo not drawn) [Compound 101] | 6.92
25 | CC1(C)CC(Oc2nccc3cc(NC(=O)c4ccc(F)cn4)cc(F)c23)CCO1 (stereo not drawn) [Compound 102] | 6.85
26 | CC1(C)CC(Oc2nccc3cc(NC(=O)c4ncc(F)cc4F)cc(F)c23)CCO1 (stereo not drawn) [Compound 103] | 7.12
27 | Cc1ccc(C(=O)Nc2ccc3c(OCC4CCOCC4)nccc3c2)nc1 [Compound 104] | 6.27
28 | O=C(Nc1ccc2c(OCC3CCOCC3)nccc2c1)c1ccc(F)cn1 [Compound 105] | 7.47
29 | CC1(C)CC(Oc2nccc3cc(NC(=O)c4ncccc4N)cc(F)c23)CCO1 (stereo not drawn) [Compound 106] | 6.90
30 | O=C(Nc1ccc2c(OCC3CCOC3)nccc2c1)c1ccncn1 (stereo not drawn) [Compound 107] | 6.65
31 | O=C(Nc1ccc2c(OCC3CCOC3)nccc2c1)c1ccc(O)cn1 (stereo not drawn) [Compound 108] | 7.18
32 | O=C(Nc1ccc2c(OCC3CCOCC3)nccc2c1)c1cccc(F)n1 [Compound 109] | 7.04
33 | Cc1ccoc1C(=O)Nc1ccc2c(OCC3CCOC3)nccc2c1 (stereo not drawn) [Compound 110] | 6.15
34 | Cc1ccoc1C(=O)Nc1ccc2c(OCC3CCOCC3)nccc2c1 [Compound 111] | 6.91
35 | Nc1cccnc1C(=O)Nc1ccc2c(Oc3ccncc3)nccc2c1 [Compound 112] | 6.40
36 | O=C(Nc1ccc2c(Oc3ccncc3)nccc2c1)c1ccc(F)cn1 [Compound 113] | 6.22
37 | O=C(Nc1ccc2c(OCc3cccnc3)nccc2c1)c1ccc(F)cn1 [Compound 114] | 6.64
38 | O=C(Nc1ccc2c(OCc3ccncc3)nccc2c1)c1ccc(F)cn1 [Compound 115] | 7.00
39 | Nc1cccnc1C(=O)Nc1ccc2c(OCC3COCCO3)nccc2c1 (stereo not drawn) [Compound 116] | 7.20
40 | Nc1nccnc1C(=O)Nc1ccc2c(OCC3COCCO3)nccc2c1 (stereo not drawn) [Compound 117] | 6.48
41 | O=C(Nc1ccc2c(OCC3COCCO3)nccc2c1)c1cccc(F)n1 (stereo not drawn) [Compound 118] | 6.67
42 | O=C(Nc1ccc2c(OCC3COCCO3)nccc2c1)c1ccc(F)cn1 (stereo not drawn) [Compound 119] | 6.55
43 | O=C(Nc1cnc2c(OCC3CCOCC3)nccc2c1)c1ccccn1 [Compound 120] | 6.48
44 | Nc1cccnc1C(=O)Nc1cnc2c(OCC3CCOCC3)nccc2c1 [Compound 121] | 6.94
45 | O=C(Nc1cnc2c(OCC3CCOCC3)nccc2c1)c1ccc(F)cn1 [Compound 122] | 6.34

— US11319304B2, “Pyridine quinoline compounds as MGLUR4 allosteric potentiators, compositions, and methods of treating neurological dysfunction” (Vanderbilt University, priority 2017, dated 2022)
